How the values were obtained:
[1] = tested on: CAL-54 (Kidney Carcinoma); assay: Bliss excess, mean over the matrix (fraction); higher = more synergy
Summary of the method: (§1)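 Cell lines grown in DMEM/F12 or RPMI with 10% FBS were plated in 1536-well plates and held 24 hours at 37°C, 5% CO2 before 72 hours of exposure to two-drug dose matrices, with DMSO typically at 0.2%. CellTiter-Glo 2.0 luminescence gave viability, which was converted to inhibition. Vehicle wells were set to 0 and blank wells to 1. Combination Emax is the second-highest inhibition in the matrix, and Bliss excess is the observed combination effect minus the expected EA + EB − EA·EB, where EA and EB are the single-agent effects.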

[2] = tested on: CAPAN-1 (Pancreatic Carcinoma); assay: as above
Summary of the method: as §1

[3] = tested on: LB771-HNC (Head and Neck Carcinoma); assay: as above
Summary of the method: as §1

[4] = tested on: HARA (Squamous Cell Lung Carcinoma); assay: as above
Summary of the method: as §1

[5] = tested on: RKO (Colorectal Carcinoma); assay: combination Emax (second highest fraction inhibited in the dose matrix, 72 h); higher = more inhibition; extreme values may be limits of the assay
Summary of the method: as §1

[6] = tested on: SK-OV-3 (Ovarian Carcinoma); assay: as above
Summary of the method: as §1

NCI-H28 (Mesothelioma) = assay: as above
Summary of the method: as §1

[7] = tested on: 8305C (Thyroid Gland Carcinoma); assay: as above
Summary of the method: as §1

[8] = tested on: TE-4 (Esophageal Squamous Cell Carcinoma); assay: as above
Summary of the method: as §1

[9] = tested on: OVCAR-8 (Ovarian Carcinoma); assay: as above
Summary of the method: as §1

NB14 (Neuroblastoma) = assay: as above
Summary of the method: as §1

[10] = tested on: NCI-H747 (Colorectal Carcinoma); assay: as above
Summary of the method: as §1

[11] = tested on: HCC-15 (Squamous Cell Lung Carcinoma); assay: as above
Summary of the method: as §1

[12] = tested on: KYSE-410 (Esophageal Squamous Cell Carcinoma); assay: as above
Summary of the method: as §1

[13] = tested on: SUP-T1 (T-Lymphoblastic Leukemia); assay: as above
Summary of the method: as §1

[14] = tested on: UMC-11 (Other Solid Carcinomas); assay: as above
Summary of the method: as §1

[15] = tested on: HDLM-2 (Hodgkin's Lymphoma); assay: as above
Summary of the method: as §1

[16] = tested on: NCI-H69 (Small Cell Lung Carcinoma); assay: as above
Summary of the method: as §1

[17] = tested on: RPMI-6666 (Non-Cancerous); assay: as above
Summary of the method: as §1

[18] = tested on: RT-112 (Bladder Carcinoma); assay: as above
Summary of the method: as §1
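For Bliss excess, mean over the matrix in this document: after 72 h of two-drug dosing.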

| SMILES | Bliss excess [1] | Bliss excess [2] | Bliss excess [3] | Bliss excess [4] | combination Emax [5] | combination Emax [6] | combination Emax (NCI-H28 (Mesothelioma)) | combination Emax [7] | combination Emax [8] | combination Emax [9] | combination Emax (NB14 (Neuroblastoma)) | combination Emax [10] | combination Emax [11] | combination Emax [12] | combination Emax [13] | combination Emax [14] | combination Emax [15] | combination Emax [16] | combination Emax [17] | combination Emax [18] |
| --- | --- | --- | --- | --- | --- | --- | --- | --- | --- | --- | --- | --- | --- | --- | --- | --- | --- | --- | --- | --- |
| CN(C)CCCOc1ccc(-c2ccc3ncc4c(c3c2)n(C2CCOCC2)c(=O)n4C)cn1 [AZD0156] + C=CCn1c(=O)c2cnc(Nc3ccc(N4CCN(C)CC4)cc3)nc2n1-c1cccc(C(C)(C)O)n1 [AZD1775] (first compound max 1 µM, partner max 1 µM) | -0.043 | -0.0768 | -0.0593 | -0.007 | 0.719 | 0.54 | 0.434 | 0.924 | 0.324 | 0.8 | 1 | 0.414 | 0.299 | 0.32 | 0.872 | 0.377 | 0.721 | 0.312 | 0.923 | 0.514 |
| CN(C)CCCOc1ccc(-c2ccc3ncc4c(c3c2)n(C2CCOCC2)c(=O)n4C)cn1 [AZD0156] + CCN(CCO)CCCOc1ccc2c(Nc3cc(CC(=O)Nc4cccc(F)c4)[nH]n3)ncnc2c1 [AZD2811] (first compound max 1 µM, 7x7, partner max 1 µM) | -0.0129 | -0.0635 | -0.0498 | 0.0136 | 0.213 | 0.138 | 0.149 | 0.29 | 0.071 | 0.26 | 0.857 | 0.167 | 0.665 | 0.0555 | 0.366 | 0.758 | 0.178 | 0.673 | 0.551 | 0.205 |
| CN(C)CCCOc1ccc(-c2ccc3ncc4c(c3c2)n(C2CCOCC2)c(=O)n4C)cn1 [AZD0156] + C[C@@H]1COCCN1C2=NC(=NC(=C2)C3(CC3)[S@](=N)(=O)C)C4=C5C=CNC5=NC=C4 [AZD6738] (first compound max 1 µM, 7x7, partner max 10 µM) | -0.0136 | -0.0775 | -0.025 | 0.0257 | 0.879 | 0.617 | 0.452 | 0.506 | 0.604 | 0.88 | 0.979 | 0.266 | 0.146 | 0.297 | 0.78 | 0.642 | 0.376 | 0.448 | 0.861 | 0.919 |
| CN(C)CCCOc1ccc(-c2ccc3ncc4c(c3c2)n(C2CCOCC2)c(=O)n4C)cn1 [AZD0156] + O=C(c1cc(Cc2n[nH]c(=O)c3ccccc23)ccc1F)N1CCN(C(=O)C2CC2)CC1 [Olaparib] (first compound max 3 µM, partner max 3 µM) | 0.034 | -0.0864 | 0.033 | 0.0504 | 0.284 | 0.228 | 0.323 | 0.441 | 0.206 | 0.316 | 0.611 | 0.339 | 0.371 | 0.172 | 0.432 | 0.246 | 0.207 | 0.354 | 0.458 | 0.228 |
| C=CCn1c(=O)c2cnc(Nc3ccc(N4CCN(C)CC4)cc3)nc2n1-c1cccc(C(C)(C)O)n1 [AZD1775] + C1CN(CCC1(C(=O)N[C@@H](CCO)C2=CC=C(C=C2)Cl)N)C3=NC=NC4=C3C=CN4 [Capivasertib] (first compound max 3 µM, partner max 3 µM) | -0.0622 | – | -0.0581 | -0.0002 | 0.886 | 0.581 | 0.56 | 0.681 | 0.88 | 0.812 | 0.98 | 0.623 | 0.878 | 0.663 | 0.916 | 0.696 | 0.769 | 0.83 | 0.921 | 0.836 |
| C=CCn1c(=O)c2cnc(Nc3ccc(N4CCN(C)CC4)cc3)nc2n1-c1cccc(C(C)(C)O)n1 [AZD1775] + CCc1c2c(nc3ccc(O)cc13)-c1cc3c(c(=O)n1C2)COC(=O)[C@]3(O)CC [SN-38] (first compound max 1 µM, partner max 0.3 µM) | -0.0327 | -0.0635 | – | -0.015 | 0.966 | 0.525 | 0.551 | 0.589 | – | – | 0.997 | – | – | – | 0.84 | – | 0.778 | 0.748 | 0.917 | 0.985 |
| C=CCn1c(=O)c2cnc(Nc3ccc(N4CCN(C)CC4)cc3)nc2n1-c1cccc(C(C)(C)O)n1 [AZD1775] + C[C@@H]1COCCN1C2=NC(=NC(=C2)C3(CC3)[S@](=N)(=O)C)C4=C5C=CNC5=NC=C4 [AZD6738] (first compound max 1 µM, partner max 10 µM) | -0.0377 | -0.0951 | -0.0057 | -0.0239 | 0.943 | 0.755 | 0.618 | 0.681 | 0.805 | 0.966 | 1 | 0.706 | 0.504 | 0.499 | 0.882 | 0.785 | 0.772 | 0.849 | – | 0.966 |
| C=CCn1c(=O)c2cnc(Nc3ccc(N4CCN(C)CC4)cc3)nc2n1-c1cccc(C(C)(C)O)n1 [AZD1775] + O=C(c1cc(Cc2n[nH]c(=O)c3ccccc23)ccc1F)N1CCN(C(=O)C2CC2)CC1 [Olaparib] (first compound max 1 µM, partner max 10 µM) | -0.0341 | -0.0123 | -0.0622 | -0.0325 | 0.719 | 0.547 | 0.421 | 0.506 | 0.366 | 0.797 | 0.986 | 0.501 | 0.31 | 0.251 | 0.879 | 0.438 | 0.74 | 0.478 | – | 0.705 |
| Cc1c2c(nn1C)CSCc1cc(n(C)n1)CSc1cc(c3ccccc3c1)OCCCc1c(C(=O)O)n(C)c3c-2c(Cl)ccc13 [AZD5991] + C1CN(CCC1(C(=O)N[C@@H](CCO)C2=CC=C(C=C2)Cl)N)C3=NC=NC4=C3C=CN4 [Capivasertib] (first compound max 1 µM, 7x7, partner max 3 µM) | 0.0428 | -0.0318 | 0.0612 | -0.0041 | 0.292 | 0.36 | – | 0.319 | 0.81 | 0.169 | 0.89 | 0.392 | 0.227 | 0.174 | 0.503 | 0.29 | 1 | 0.405 | 0.7 | 0.858 |
| Cc1c2c(nn1C)CSCc1cc(n(C)n1)CSc1cc(c3ccccc3c1)OCCCc1c(C(=O)O)n(C)c3c-2c(Cl)ccc13 [AZD5991] + CN(C)CCCOc1ccc(-c2ccc3ncc4c(c3c2)n(C2CCOCC2)c(=O)n4C)cn1 [AZD0156] (first compound max 1 µM, 7x7, partner max 1 µM) | -0.0036 | -0.0229 | 0.0096 | – | 0.225 | 0.342 | 0.194 | 0.325 | 0.481 | 0.219 | 0.771 | 0.414 | 0.303 | 0.236 | 0.371 | 0.486 | 0.985 | 0.314 | 0.502 | 0.876 |
| CS(=O)(=O)CCNCc1ccc(-c2ccc3ncnc(Nc4ccc(OCc5cccc(F)c5)c(Cl)c4)c3c2)o1 [Lapatinib] + Cn1cnc2c(F)c(Nc3ccc(Br)cc3Cl)c(C(=O)NOCCO)cc21 [Selumetinib] (first compound max 10 µM, 7x7, partner max 10 µM) | 0.0022 | -0.0664 | – | -0.0257 | 0.763 | 0.347 | 0.412 | 0.542 | – | – | 0.898 | – | – | – | 0.53 | – | 0.372 | 0.425 | 0.462 | 0.486 |
| CS(=O)(=O)CCNCc1ccc(-c2ccc3ncnc(Nc4ccc(OCc5cccc(F)c5)c(Cl)c4)c3c2)o1 [Lapatinib] + NC1(c2ccc(-c3nc4ccn5c(=O)[nH]nc5c4cc3-c3ccccc3)cc2)CCC1 [MK-2206] (first compound max 10 µM, 7x7, partner max 10 µM) | -0.0009 | -0.016 | – | 0.086 | 0.931 | 0.658 | 0.607 | 0.929 | – | – | 0.941 | 0.898 | – | – | 0.912 | – | 0.625 | 0.956 | 0.766 | 0.917 |
| CCc1c2c(nc3ccc(O)cc13)-c1cc3c(c(=O)n1C2)COC(=O)[C@]3(O)CC [SN-38] + O=C(c1cc(Cc2n[nH]c(=O)c3ccccc23)ccc1F)N1CCN(C(=O)C2CC2)CC1 [Olaparib] (first compound max 0.3 µM, 7x7, partner max 10 µM) | -0.0068 | 0.0168 | -0.0181 | 0.124 | 0.86 | 0.535 | 0.429 | 0.627 | 0.402 | – | 0.967 | 0.542 | – | 0.423 | 0.84 | 0.24 | 0.473 | 0.692 | 0.998 | 0.762 |
| Cc1nc(-c2cn3c(n2)-c2ccc(-c4cnn(C(C)(C)C(N)=O)c4)cc2OCC3)n(C(C)C)n1 [Taselisib] + O=C(Nc1ccc2[nH]nc(-c3ccncc3)c2c1)[C@@H]1CCN(CC(=O)N2CCN(c3ccc(-c4ncccn4)cc3)CC2)C1 [SCH772984] (first compound max 10 µM, 7x7, partner max 5 µM) | -0.0024 | 0.0449 | – | 0.0577 | 0.961 | 0.69 | 0.589 | 0.843 | – | – | 0.697 | – | – | – | 0.609 | – | 0.345 | 0.716 | 0.716 | 0.802 |

Source: the supplement of paper PMC11061612
